Source: patent publication US10183047B2, “Chromium-containing compositions in combination with Phyllanthus emblica and shilajit having synergistic effects for improving endothelial function and cardiovascular health” (Natreon, Inc., priority 2014, dated 2019)
Marks after values point to notes of the source that are not given here.

Tests used:
Assay type in all cases: in vivo, human
[1] = tested on: endothelial function; test: Reflection index (RI), salbutamol challenge test with digital volume plethysmography, type 2 diabetics; details: for RI: DM, 400 mcg; for Absolute change of RI / Reflection index (%) Post Tt / Reflection index (%) Pre Tt: type 2 diabetics (Example 3), chromium products 400 mcg; for Absolute change of RI: 12 week treatment; for Reflection index (%) Post Tt: post-treatment, 12 weeks; for Reflection index (%) Pre Tt: pre-treatment
Protocol: (§1) The present clinical study is a prospective, randomized, double blind, placebo-controlled study. Patients of either sex, aged 30-65 years, fasting plasma glucose of 110-126 mg/dl, a glycosylated hemoglobin (HbA1c) between 6.5% and 8% and taking stable dose of anti-diabetic treatment (metformin 1500-2000 mg/day) for the past 8 weeks prior to the screening visit; and having endothelial dysfunction defined as ≤6% change in reflection index (RI) on post salbutamol challenge test were included in the study. Patients with severe uncontrolled hyperglyceamia, uncontrolled hypertension, cardiac arrhythmia, impaired hepatic or renal function, history of malignancy or stroke, smoking, chronic alcoholism, any other serious disease requiring active treatment and treatment with any other herbal supplements, were excluded from the study.
(§2) After screening, all the eligible subjects were randomized to receive either one of the three treatments orally for duration of 12 weeks—Group1—one capsule of Crominex®3+, 200 mcg once daily, Group 2—one capsule Crominex®3+, 400 mcg once daily; Group 3—one capsule of placebo once daily.
(§3) Subjects were required for follow up at 4, 8 and 12 weeks of therapy. At each visit they were evaluated for efficacy and safety. Pharmacodynamic evaluation for endothelial function was conducted at every visit. Blood samples were collected for evaluation of biomarkers before and at the end of treatment. Safety lab investigations for hematological, hepatic and renal biochemical parameters were conducted before and at the end of the study and also as and when required (in case of any adverse drug reaction (ADR). Subjects were enquired for the presence of ADR and the same was recorded in the case report form. Compliance to therapy was assessed by pill count method.
Procedure for Assessment of Endothelial Function by Determination of Reflection Index (RI).
A salbutamol (albuterol) challenge test employing digital volume plethysmography was used to assess endothelial function as reported by Chowienczyk et al., “Photoplethysmographic assessment of pulse wave reflection: blunted response to endothelium dependant beta 2-adrenergic vasodilation in type 2 diabetes mellitus,” J. Am. Coll. Cardiol. (1999 December) 34(7):2007-14; and Naidu, et al., “Comparison of two β2 adrenoceptor agonists by different routes of administration to assess human endothelial function,” Indian J. Pharmacol. (2007) 39:168-9. The patients were examined in supine position after 5 minutes of rest. A digital volume pulse (DVP) was obtained using a photo plethysmograph (Pulse Trace PCA2, PT200, Micro Medical, Gallingham, Kent, UK) transmitting infrared light at 940 nm, placed on the index finger of the right hand. The signal from the plethysmograph was digitized using a 12 bit analogue to digital converter with a sampling frequency of 100 Hz. DVP waveforms were recorded over 20 second period and the height of the late systolic/early diastolic portion of the DVP was expressed as a percentage of the amplitude of the DVP to yield the reflection index (RI), per the procedure described in detail by Millasseau et al., “Determination of age related increases in large artery stiffness by digital pulse contour analysis,” Clinical Science (2002) 103: 371-377. Three DVP recordings were taken, and measurements of reflection index (RI) were calculated and the mean value was determined. Patients were then administered 400 μg of salbutamol by inhalation. After 15 minutes three measurements of RI were obtained again and the difference in mean RI before and after administration of salbutamol was used for assessing endothelial function. A change of ≤6% in RI post-salbutamol was considered as endothelial dysfunction.
The primary efficacy measure was a change in endothelial dysfunction as assessed by more than 6% change in reflection index at 12 weeks. […]

[2] = tested on: nitric oxide (NO); test: Nitric oxide level, spectrophotometric, type 2 diabetics; details: for NO: DM, 400 mcg; for Mean percentage change in NO / NO Post Tt / NO Pre Tt: type 2 diabetics (Example 3), chromium products 400 mcg; for Mean percentage change in NO: 12 week treatment; for NO Post Tt: post-treatment, 12 weeks; for NO Pre Tt: pre-treatment
Protocol: as §1, §2, §3
(§4) Nitric oxide, MDA, Glutathione and levels were estimated spectrophotometrically as follows. Malondialdehyde (MDA) levels were determined as described in Vidyasagar, et al., “Oxidative stress and antioxidant status in acute organophosphorous insecticide poisoning,” Indian J. Pharmacol. (April 2004) 36(2): 76-79. Glutathione levels were determined as described in G. L. Ellman, Arch. Biochem. Biophys. (1959) 82: 70-77 (original determination). Nitric oxide levels were estimated spectrophotometrically as described in Miranda, et al., “A Rapid, Simple Spectrophotometric Method for Simultaneous Detection of Nitrate and Nitrite,” NITRIC OXIDE: Biology and Chemistry (2001) Vol. 5, No. 1, pp. 62-71. hsCRP (high sensitivity C-reactive protein) was determined by ELISA method.
(§5) When the results with Crominex® 3+ in the above two examples were highly significant, especially with the 400 mcg once daily dose in type 2 diabetics, two more clinical studies (EXAMPLES 3 & 4) were conducted at the same institute, following the same methodology as described earlier, on the individual components of Crominex® 3+, i.e., chromium chloride and Phyllanthus emblica+Shilajit, and other chromium supplements available in the market, i.e., chromium picolinate, chromium polynicotinate and chromium dinicocysteinate, in type 2 diabetics as well as in subjects with metabolic syndrome symptoms.

[3] = Blood pressure, type 2 diabetics; details: type 2 diabetics (Example 3), chromium products 400 mcg; for Diastolic blood pressure Post Tt / Systolic blood pressure Post Tt: post-treatment, 12 weeks; for Diastolic blood pressure Pre Tt / Systolic blood pressure Pre Tt: pre-treatment
Protocol: as §5

[4] = tested on: nitric oxide (NO); test: Nitric oxide level, metabolic syndrome subjects; details: for NO: MS, 400 mcg; for NO Post Tt / Mean percentage change in NO / NO Pre Tt: metabolic syndrome subjects (Example 4), chromium products 400 mcg; for NO Post Tt: after 12 weeks of treatment; for Mean percentage change in NO: after 12 weeks treatment; for NO Pre Tt: pre-treatment
Protocol: as §4
Patients included in the study, were of either gender, aged 30-68 years, having endothelial dysfunction defined as ≤6% change in reflection index (RI) on post salbutamol challenge test and central obesity as defined by The International Diabetes Federation guidelines, dated 2006, and any two of the following conditions:
After screening, all the eligible subjects were randomized to receive either one of the three treatments orally for duration of 12 weeks: group 1—one capsule of Crominex®3+ 200 mcg once daily; group 2—one capsule 400 mcg once daily; group 3—one capsule of Placebo once daily.
Subjects were reviewed for follow up at 4 weeks, 8 and 12 weeks of therapy. At each visit they were evaluated for efficacy and safety. Pharmacodynamic evaluation for endothelial function was conducted at baseline and end of treatment. Blood samples were collected for evaluation of biomarkers before and at end of treatment. Safety lab investigations for hematological, hepatic and renal biochemical parameters were conducted before and at the end of the study and also as and when required (in case of any adverse drug reaction (ADR)). Subjects were enquired for the presence of ADR and the same was recorded in the case report form. Compliance to therapy was assessed by pill count method.
Assessment of endothelial function, biomarkers, safety parameters and primary and secondary efficacy parameters and data analysis were performed as described under the study with type 2 diabetic subjects in Example 1.
as §5

| Compound | RI [1] | Absolute change of RI [1] | Reflection index (%) Post Tt [1] | Reflection index (%) Pre Tt [1] | NO [2] | Mean percentage change in NO [2] | NO Post Tt [2] | NO Pre Tt [2] | Diastolic blood pressure Post Tt [3] | Systolic blood pressure Post Tt [3] | Diastolic blood pressure Pre Tt [3] | Systolic blood pressure Pre Tt [3] | NO [4] | NO Post Tt [4] | Mean percentage change in NO [4] | NO Pre Tt [4] |
| --- | --- | --- | --- | --- | --- | --- | --- | --- | --- | --- | --- | --- | --- | --- | --- | --- |
| O.O.O.O.O.O.[Cl][Cr]([Cl])[Cl] [Chromium chloride, Chromium chloride (CrCl3.6H2O)] | −0.57% | −0.57 + 0.36 #NS % | −3.22 ± 0.85 % | −3.79 ± 0.82^ % | 6.98% | 6.98 ± 10.15@NS % | 29.60 ± 2.65 μM/L | 27.74 ± 2.01 μM/L | 77.16 ± 1.68 NS mmHg | 117.26 ± 1.52 NS mmHg | 77.05 ± 1.68 mmHg | 117.37 ± 2.50 mmHg | 5.5% | 30.99 ± 4.46 μM/L | 5.50 ± 1.73% | 29.39 ± 4.43 μM/L |
| chromium dinicocysteinate | −1.03% | −1.03 + 0.34 #NS % | −3.82 ± 0.74 % | −4.85 ± 0.74^ % | 7.08% | 7.08 ± 2.40@NS % | 30.91 ± 2.87 μM/L | 28.88 ± 2.72 μM/L | 76.78 ± 1.22 NS mmHg | 118.11 ± 2.11 NS mmHg | 77.00 ± 1.41 mmHg | 118.89 ± 3.08 mmHg | 7.68% | 32.66 ± 3.88 μM/L | 7.68 ± 2.25% | 30.33 ± 3.58 μM/L |
| chromium picolinate | −2.2% | −2.22 + 0.89 # % | −2.46 ± 0.90 % | −4.68 ± 1.24^ % | 11.1% | 11.09 ± 4.73@NS % | 32.96 ± 2.54 μM/L | 29.75 ± 2.92 μM/L | 76.32 ± 2.14 NS mmHg | 117.47 ± 2.82 NS mmHg | 76.95 ± 2.70 mmHg | 118.63 ± 2.75 mmHg | 13.9% | 32.94 ± 3.79 μM/L | 13.92 ± 2.65% | 28.94 ± 3.56 μM/L |
| chromium polynicotinate | −1.04% | −1.04 + 0.39 #NS % | −3.71 ± 1.1 $ % | −4.3 ± 1.2% | 5.33% | 5.33 ± 2.25 #@NS % | 31.86 ± 2.55 μM/L | 30.26 ± 2.48 μM/L | 79.7 ± 2.85 NS mmHg | 124.1 ± 4.88 NS mmHg | 81.2 ± 3.07 mmHg | 125.9 ± 5.17 mmHg | 5.35% | 32.93 ± 4.66 μM/L | 5.35 ± 0.96% | 31.26 ± 4.46 μM/L |
